In PubChem BioAssay AID276 (DTP/NCI, 2004):
Where “and” joins values, the source holds several entries; their conditions need not be identical. Equal entries are not always repeated. Inconclusive results and toxic doses are left out. How the source made its calls: active means survival T/C of 150% or more; inactive means T/C below 125% in these data.

Test system: B6C3F1 mice, Lewis lung carcinoma iv, survival T/C
Assay: NCI In Vivo Anticancer Drug Screen. Data for tumor model Lewis Lung Carcinoma (intravenous) in B6C3F1 mice
Conditions: endpoint: median survival time, higher = longer survival
How it was run: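 Tumors were transplanted into mice, which were then dosed with compound or vehicle. Survival was recorded in each group, and the treated figure was divided by the control figure.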

[1] = dose: 6.25 mg/kg/injection, schedule: Q01DX009 (ip), vehicle: water
[2] = dose: 12.5 mg/kg/injection, schedule: Q01DX009 (ip), vehicle: water
[3] = dose: 25.0 mg/kg/injection, schedule: Q01DX009 (ip), vehicle: water
[4] = dose: 25.0 mg/kg/injection, schedule: Q01DX009 (ip), vehicle: Klucel (hydroxypropylcellulose) (HPC)
[5] = dose: 50.0 mg/kg/injection, schedule: Q01DX009 (ip), vehicle: Klucel (hydroxypropylcellulose) (HPC)
[6] = dose: 100.0 mg/kg/injection, schedule: Q01DX009 (ip), vehicle: Klucel (hydroxypropylcellulose) (HPC)
[7] = dose: 200.0 mg/kg/injection, schedule: Q01DX009 (ip), vehicle: Klucel (hydroxypropylcellulose) (HPC)
[8] = dose: 400.0 mg/kg/injection, schedule: Q01DX009 (ip), vehicle: Klucel (hydroxypropylcellulose) (HPC)
[9] = dose: 25.0 mg/kg/injection, schedule: Q01DX009 (ip), vehicle: saline with Tween-80
[10] = dose: 50.0 mg/kg/injection, schedule: Q01DX009 (ip), vehicle: saline with Tween-80
[11] = dose: 100.0 mg/kg/injection, schedule: Q01DX009 (ip), vehicle: saline with Tween-80
[12] = dose: 200.0 mg/kg/injection, schedule: Q01DX009 (ip), vehicle: saline with Tween-80
[13] = dose: 12.5 mg/kg/injection, schedule: Q01DX009 (ip), vehicle: saline with Tween-80
[14] = dose: 12.5 mg/kg/injection, schedule: Q01DX009 (ip), vehicle: Klucel (hydroxypropylcellulose) (HPC)

Measured: T/C

Nc1n[n+](-c2ccccc2)no1
inactive: dose: 3.13 mg/kg/injection, schedule: Q01DX009 (ip), vehicle: water 108 % of control | [1] 100 % of control | [2] 113 % of control | [3] 114 % of control

Clc1ccc(C2SC=Cc3ccccc32)cc1 (stereo unspecified)
inactive: [4] 115 % of control | [5] 114 % of control | [6] 110 % of control | [7] 107 % of control | [8] 105 % of control

C=C/C(C)=C/[C@H](C)C(=O)C[C@H](O)CC1CC(=O)NC(=O)C1
inactive: dose: 6.25 mg/kg/injection, schedule: Q01DX009 (ip), vehicle: other 96 % of control | dose: 12.5 mg/kg/injection, schedule: Q01DX009 (ip), vehicle: other 96 % of control | dose: 25.0 mg/kg/injection, schedule: Q01DX009 (ip), vehicle: other 97 % of control | dose: 50.0 mg/kg/injection, schedule: Q01DX009 (ip), vehicle: other 92 % of control | dose: 100.0 mg/kg/injection, schedule: Q01DX009 (ip), vehicle: other 96 % of control | dose: 200.0 mg/kg/injection, schedule: Q01DX009 (ip), vehicle: other 100 % of control

Cc1ccc(N)c(N)c1
inactive: [9] 96 % of control | [10] 98 % of control | [11] 108 % of control | [12] 103 % of control

O=C1CN(Cc2ccc3c(c2)OCO3)NO1
inactive: dose: 6.25 mg/kg/injection, schedule: Q01DX009 (ip), vehicle: saline with Tween-80 104 % of control and 109 % of control | [13] 106 % of control and 87 % of control | [9] 104 % of control and 123 % of control | [10] 104 % of control and 111 % of control | [11] 123 % of control and 86 % of control

CCCCCC1c2cc(O)ccc2OC1N1CCOCC1 (stereo unspecified)
inactive: dose: 6.0 mg/kg/injection, schedule: Q01DX009 (ip), vehicle: saline with Tween-80 96 % of control | dose: 12.0 mg/kg/injection, schedule: Q01DX009 (ip), vehicle: saline with Tween-80 104 % of control | [13] 97 % of control | [9] 91 % of control | [10] 103 % of control and 104 % of control | [11] 94 % of control and 96 % of control | [12] 90 % of control and 99 % of control

CCCC(=O)OCc1cc(=O)n(C)c2c3c4c(cc12)c(C)cc(=O)n4CO3
inactive: dose: 3.12 mg/kg/injection, schedule: Q01DX009 (ip), vehicle: Klucel (hydroxypropylcellulose) (HPC) 91 % of control | dose: 6.25 mg/kg/injection, schedule: Q01DX009 (ip), vehicle: Klucel (hydroxypropylcellulose) (HPC) 97 % of control | [14] 92 % of control | [5] 118 % of control

O=c1[nH]c(=O)n(C2CC(O)C(CO)O2)cc1F (stereo unspecified)
inactive: dose: 147.0 mg/kg/injection, schedule: Q04DX003 (ip), vehicle: saline 102 % of control | dose: 210.0 mg/kg/injection, schedule: Q04DX003 (ip), vehicle: saline 118 % of control

O=C1C=C2C(=CCOC2O)O1 (stereo unspecified)
inactive: dose: 0.25 mg/kg/injection, schedule: Q01DX009 (ip), vehicle: Klucel (hydroxypropylcellulose) (HPC) 99 % of control | dose: 0.5 mg/kg/injection, schedule: Q01DX009 (ip), vehicle: Klucel (hydroxypropylcellulose) (HPC) 104 % of control | dose: 0.75 mg/kg/injection, schedule: Q01DX009 (ip), vehicle: saline 97 % of control | dose: 1.0 mg/kg/injection, schedule: Q01DX009 (ip), vehicle: Klucel (hydroxypropylcellulose) (HPC) 94 % of control | dose: 1.5 mg/kg/injection, schedule: Q01DX009 (ip), vehicle: saline 98 % of control | dose: 2.0 mg/kg/injection, schedule: Q01DX009 (ip), vehicle: Klucel (hydroxypropylcellulose) (HPC) 98 % of control | dose: 3.0 mg/kg/injection, schedule: Q01DX009 (ip), vehicle: saline 98 % of control | dose: 4.0 mg/kg/injection, schedule: Q01DX009 (ip), vehicle: Klucel (hydroxypropylcellulose) (HPC) 94 % of control

O=C1NC(=O)C2C3C=CC(C12)C1C2C(=O)NC(=O)C2C31 (stereo unspecified)
inactive: [13] 96 % of control and 105 % of control | [9] 95 % of control and 102 % of control | [10] 99 % of control | [11] 96 % of control | [12] 91 % of control

Cn1c(=O)[nH]c2nncnc2c1=O
inactive: dose: 3.12 mg/kg/injection, schedule: Q01DX009 (ip), vehicle: water 97 % of control | [1] 105 % of control | [2] 102 % of control | [3] 94 % of control | dose: 50.0 mg/kg/injection, schedule: Q01DX009 (ip), vehicle: water 90 % of control

Cc1ccc2c(ccc(/C=C/c3ccc(O)c4ncccc34)[n+]2C)c1
inactive: dose: 12.5 mg/kg/injection, schedule: Q01DX009 (ip), vehicle: saline 100 % of control | dose: 25.0 mg/kg/injection, schedule: Q01DX009 (ip), vehicle: saline 86 % of control

c1ccc2sc(SSN3CC4CCC(CC4)C3)nc2c1
inactive: [13] 100 % of control | [9] 93 % of control | [10] 90 % of control | [11] 91 % of control | [12] 106 % of control

NC(=O)CCC(N)C(=O)O (stereo unspecified)
inactive: dose: 25.0 mg/kg/injection, schedule: Q01DX009 (ip), vehicle: suspension in saline 109 % of control | dose: 50.0 mg/kg/injection, schedule: Q01DX009 (ip), vehicle: suspension in saline 111 % of control | dose: 100.0 mg/kg/injection, schedule: Q01DX009 (ip), vehicle: suspension in saline 107 % of control | dose: 200.0 mg/kg/injection, schedule: Q01DX009 (ip), vehicle: suspension in saline 102 % of control | dose: 400.0 mg/kg/injection, schedule: Q01DX009 (ip), vehicle: suspension in saline 94 % of control

Cc1cc(Nc2ccc3c(c2)OCO3)c2cc3c(cc2n1)OCO3
inactive: [14] 100 % of control | [4] 98 % of control | [5] 98 % of control and 104 % of control | [6] 101 % of control

Cc1ccc(C2NC(=S)N3C(c4ccc(C)cc4)NC(=S)N23)cc1 (stereo unspecified)
inactive: [4] 103 % of control | [5] 101 % of control | [6] 93 % of control | [7] 99 % of control | [8] 98 % of control | dose: 800.0 mg/kg/injection, schedule: Q01DX009 (ip), vehicle: Klucel (hydroxypropylcellulose) (HPC) 109 % of control

CCCCNC(C)C1(O)Cc2c(O)c3c(c(O)c2C(OC2CC(N)C(O)C(C)O2)C1)C(=O)c1c(OC)cccc1C3=O (stereo unspecified)
inactive: dose: 10.0 mg/kg/injection, schedule: Q01DX009 (ip), vehicle: water 108 % of control | dose: 20.0 mg/kg/injection, schedule: Q01DX009 (ip), vehicle: water 101 % of control | dose: 40.0 mg/kg/injection, schedule: Q01DX009 (ip), vehicle: water 107 % of control | dose: 80.0 mg/kg/injection, schedule: Q01DX009 (ip), vehicle: water 113 % of control
